Experimental data as given in patent US10220029B2, “Pharmaceutical composition comprising glutarimide derivatives and use thereof in the treatment of eosinophilic diseases” (OBSCHESTVO S ORGANICHENNOI OTVETSTVENNOSTIYU …, priority 2013, dated 2019).
Marks after values point to notes of the source that are not given here.

Legend:
[1] = test system: model of bronchial asthma in guinea pigs; assay: Content of cell elements in the blood in the model of bronchial asthma in guinea pigs; type: in vivo, guinea pig; settings: Table 6 Experiment No. 1, 10 times, n = 8
Experimental: Bronchial asthma in guinea pigs was induced by a standard method [Ricciardolo F L, Nijkamp F, De Rose V, Folkerts G. The guinea pig as an animal model for asthma// Current Drug Targets. 2008 June; 9(6):452-65]. The animals were immunized by one parenteral administration of 0.5 mL of a solution comprising 100 μg/mL ovalbumin (Sigma) and 100 mg/mL aluminium hydroxide. Intact animals received a physiological saline solution in an amount of 0.5 mL.
On days 29, 30 and 31, hyperactivity of the respiratory airways was provoked by inhalation administration of ovalbumin in ascending concentrations of 0.1, 0.3, and 0.5 mg/mL on days 1, 2, and 3 of the provocation, respectively. The inhalation lasted 5 minutes or until asphyxia symptoms became apparent (fall to one side). On day 32, the animals received a challenging dose of ovalbumin (1 mg/mL) for 5 minutes, while assessing a bronchospastic reaction.
The studied compounds were administered to the animals once daily every day for 6 or 10 days; the administration was terminated two days before the administration of the challenging dose of antigen.
The bronchoalveolar lavage (BAL) and cardiac cavity blood were derived from the animals 24 hours after administration of the challenging dose. The BAL was collected under anesthesia by lavaging the lungs with 5 mL of a physiological saline solution heated to 37° C. through the trachea, using a syringe dosing device.
The blood was analyzed with a hemocytometer to determine leykoformula.
The study comprised 3 experiments, wherein the first one was directed to the evaluation of the effect of claimed compounds 1-6 on the cell composition of the BAL, the second and the third experiments were aimed at evaluating the effect of compounds 1 and 2 on the cell composition of the BAL, the cell composition of the blood, and on the bronchospasm severity.

[2] = test system: model of sephadex-induced eosinophilic lung inflammation in rats; assay: Content of cell elements in BAL in the model of sephadex-induced eosinophilic lung inflammation in rats; type: in vivo, male Wistar rats; settings: Table 8, four times, BAL 48 hours after sephadex, n = 10
Experimental: The model of sephadex-induced eosinophilic lung inflammation in rats was realized by a standard method [Evaldsson C, Rydén I, Uppugunduri S. Isomaltitol exacerbates neutrophilia but reduces eosinophilia: new insights into the sephadex model of lung inflammation//Int Arch Allergy Immunol. 2011; 154(4):286-94]. Sephadex G-200 (Pharmacia, Sweden) was administered one time by inhalation to male Wistar rats at a dose of 5 mg/kg. The studied compounds were administered to the animals by the intragastric route four times: 24 hours and 1 hour before and 24 hours and 45 hours after administration of sephadex. The reference preparation, budesonide, was administered according to the same scheme, by inhalation at a dose of 0.5 mg/kg. Bronchoalveolar lavage was taken 48 hours after the inhalation of sephadex, and the total lymphocyte count and leukocyte formula in the lavage were determined. The number of rats in a group was 7 to 10.

[3] = test system: model of allergic rhinitis in guinea pigs; assay: Content of cell elements in the nasal lavage in the model of allergic rhinitis in guinea pigs; type: in vivo, guinea pig; settings: 14 mg/kg intragastric, 3 times; nasal lavage 24 hours after last ovalbumin; n = 8
Experimental: (§1) The model of allergic rhinitis in guinea pigs was realized by a standard method [Vishnu N. Thakare, M. M. Osama, Suresh R. Naik. […] 2013 September; 17(1):18-25].
(§2) Guinea pigs (250-300 g) were immunized with 4-time (on days 0, 7, 14, and 21) intragastric administration of ovalbumin (100 μg/pig) and aluminium hydroxide (5 mg/pig), both of which were diluted and suspended in a physiological saline solution. […], a solution of ovalbumin (60 mg/mL) was administered intranasally to each nostril of the animals at a dose 20 μL. On day 35, the animals received subcutaneously an ovalbumin solution (200 μg/mL, 25 μL); the animal back was previously shaved in the site of administration. Swelling and redness at the injection site served as a support of sensibilisation. On day 42 of the study, an ovalbumin solution (60 mg/mL, 20 μL/nostril) was administered intranasally. A group of pseudoimmunized animals was formed to control the formation of exactly allergic inflammation: on days 0, 7, 14, and 21, the pigs received a solution of aluminium hydroxide (5 mg/pig), and on days 28 and 35, they received a physiological saline solution, and on day 42, a solution of ovalbumin (60 mg/mL, 20 μL/nostril).
(§3) The studied compounds (14 mg/kg) were administered 3 times by the intragastric route: 48, 24, and 1 hour before the last administration of ovalbumin. The reference preparation, dexamethasone, was administered one time by the intragastric route, 3 hours before the last intranasal administration of ovalbumin.
(§4) Clinical manifestations, such as the number of sneezes and nose scratchings, were registered for 2 hours after the last administration of ovalbumin. Nasal lavage was taken 24 hours after the last administration of ovalbumin, and in this lavage, the total lymphocyte count and leukocyte formula were determined. The number of guinea pigs in a group was 8.

[4] = test system: model of allergic rhinitis in guinea pigs; assay: Clinical manifestations of allergic rhinitis in guinea pigs (sneezes, nose scratchings); type: in vivo, guinea pig; settings: 14 mg/kg intragastric, 3 times; 2 hours after last ovalbumin; n = 8
Experimental: as §1, §2, §3, §4

O=C1CCCC(=O)N1CCc1cnc[nH]1 [Compound 1, 1-(2-(1H-imidazol-4-yl)ethyl)piperidine-2,6-dione]
Banded neutrophils in the blood ([1]; 0.045 mg/kg): 0.31 ± 0.10 10^9/L
Basophils in the blood ([1]; 0.045 mg/kg): 0 ± 0 10^9/L
Cytosis in the blood ([1]; 0.045 mg/kg): 9.03 ± 1.40& 10^9/L
Eosinophils in the blood ([1]; 0.045 mg/kg): 0.19 ± 0.04& 10^9/L
Lymphocytes in the blood ([1]; 0.045 mg/kg): 4.80 ± 0.84* 10^9/L
Monocytes in the blood ([1]; 0.045 mg/kg): 0.29 ± 0.08 10^9/L
Segmented neutrophils in the blood ([1]; 0.045 mg/kg): 2.92 ± 0.65 10^9/L
Banded neutrophils in the blood ([1]; 0.14 mg/kg): 0.19 ± 0.05& 10^9/L
Basophils in the blood ([1]; 0.14 mg/kg): 0 ± 0 10^9/L
Cytosis in the blood ([1]; 0.14 mg/kg): 9.11 ± 1.07*& 10^9/L
Eosinophils in the blood ([1]; 0.14 mg/kg): 0.09 ± 0.03& 10^9/L
Lymphocytes in the blood ([1]; 0.14 mg/kg): 5.25 ± 0.89* 10^9/L
Monocytes in the blood ([1]; 0.14 mg/kg): 0.33 ± 0.06* 10^9/L
Segmented neutrophils in the blood ([1]; 0.14 mg/kg): 2.23 ± 0.58& 10^9/L
Banded neutrophils in the blood ([1]; 14 mg/kg): 0.27 ± 0.06* 10^9/L
Basophils in the blood ([1]; 14 mg/kg): 0 ± 0 10^9/L
Cytosis in the blood ([1]; 14 mg/kg): 8.90 ± 0.25*& 10^9/L
Eosinophils in the blood ([1]; 14 mg/kg): 0.13 ± 0.04& 10^9/L
Lymphocytes in the blood ([1]; 14 mg/kg): 4.45 ± 0.25* 10^9/L
Monocytes in the blood ([1]; 14 mg/kg): 0.33 ± 0.06* 10^9/L
Segmented neutrophils in the blood ([1]; 14 mg/kg): 3.66 ± 0.22* 10^9/L
Eosinophils, content of cell elements in 1 μL of BAL ([2]; 0.06 mg/kg intragastric): 118 ± 27*& in 1 μL of BAL
Leukocytes, content of cell elements in 1 μL of BAL ([2]; 0.06 mg/kg intragastric): 2500 ± 307 in 1 μL of BAL
Lymphocytes, content of cell elements in 1 μL of BAL ([2]; 0.06 mg/kg intragastric): 128 ± 48 in 1 μL of BAL
Macrophages, content of cell elements in 1 μL of BAL ([2]; 0.06 mg/kg intragastric): 1417 ± 131 in 1 μL of BAL
Neutrophils, content of cell elements in 1 μL of BAL ([2]; 0.06 mg/kg intragastric): 837 ± 231 in 1 μL of BAL
Eosinophils, content of cell elements in 1 μL of BAL ([2]; 0.18 mg/kg intragastric): 174 ± 64*& in 1 μL of BAL
Leukocytes, content of cell elements in 1 μL of BAL ([2]; 0.18 mg/kg intragastric): 2665 ± 455 in 1 μL of BAL
Lymphocytes, content of cell elements in 1 μL of BAL ([2]; 0.18 mg/kg intragastric): 143 ± 54 in 1 μL of BAL
Macrophages, content of cell elements in 1 μL of BAL ([2]; 0.18 mg/kg intragastric): 1661 ± 260 in 1 μL of BAL
Neutrophils, content of cell elements in 1 μL of BAL ([2]; 0.18 mg/kg intragastric): 597 ± 168 in 1 μL of BAL
Eosinophils, content of cell elements in 1 μL of BAL ([2]; 0.54 mg/kg intragastric): 126 ± 43*& in 1 μL of BAL
Leukocytes, content of cell elements in 1 μL of BAL ([2]; 0.54 mg/kg intragastric): 2120 ± 218*& in 1 μL of BAL
Lymphocytes, content of cell elements in 1 μL of BAL ([2]; 0.54 mg/kg intragastric): 196 ± 63 in 1 μL of BAL
Macrophages, content of cell elements in 1 μL of BAL ([2]; 0.54 mg/kg intragastric): 1446 ± 113 in 1 μL of BAL
Neutrophils, content of cell elements in 1 μL of BAL ([2]; 0.54 mg/kg intragastric): 352 ± 135 in 1 μL of BAL
Eosinophils, content of cell elements in 1 μL of BAL ([2]; 1.8 mg/kg intragastric): 129 ± 44*& in 1 μL of BAL
Leukocytes, content of cell elements in 1 μL of BAL ([2]; 1.8 mg/kg intragastric): 1915 ± 250*& in 1 μL of BAL
Lymphocytes, content of cell elements in 1 μL of BAL ([2]; 1.8 mg/kg intragastric): 122 ± 49 in 1 μL of BAL
Macrophages, content of cell elements in 1 μL of BAL ([2]; 1.8 mg/kg intragastric): 1214 ± 130 in 1 μL of BAL
Neutrophils, content of cell elements in 1 μL of BAL ([2]; 1.8 mg/kg intragastric): 451 ± 149 in 1 μL of BAL
Eosinophils, content of cell elements in 1 μL of BAL ([2]; 5.4 mg/kg intragastric): 152 ± 56*& in 1 μL of BAL
Leukocytes, content of cell elements in 1 μL of BAL ([2]; 5.4 mg/kg intragastric): 2340 ± 322 in 1 μL of BAL
Lymphocytes, content of cell elements in 1 μL of BAL ([2]; 5.4 mg/kg intragastric): 170 ± 45 in 1 μL of BAL
Macrophages, content of cell elements in 1 μL of BAL ([2]; 5.4 mg/kg intragastric): 1525 ± 199 in 1 μL of BAL
Neutrophils, content of cell elements in 1 μL of BAL ([2]; 5.4 mg/kg intragastric): 492 ± 129 in 1 μL of BAL
Eosinophils, content of cell elements in 1 μL of BAL ([2]; 18 mg/kg intragastric): 69 ± 22*& in 1 μL of BAL
Leukocytes, content of cell elements in 1 μL of BAL ([2]; 18 mg/kg intragastric): 2135 ± 205*& in 1 μL of BAL
Lymphocytes, content of cell elements in 1 μL of BAL ([2]; 18 mg/kg intragastric): 168 ± 44 in 1 μL of BAL
Macrophages, content of cell elements in 1 μL of BAL ([2]; 18 mg/kg intragastric): 1601 ± 134 in 1 μL of BAL
Neutrophils, content of cell elements in 1 μL of BAL ([2]; 18 mg/kg intragastric): 297 ± 89*& in 1 μL of BAL
Eosinophils, content of cell elements in 1 μL of nasal lavage [3]: 521 ± 129& in 1 μL of nasal lavage
Leukocytes, content of cell elements in 1 μL of nasal lavage [3]: 1300 ± 254& in 1 μL of nasal lavage
Lymphocytes, content of cell elements in 1 μL of nasal lavage [3]: 6 ± 6 in 1 μL of nasal lavage
Macrophages, content of cell elements in 1 μL of nasal lavage [3]: 405 ± 130 in 1 μL of nasal lavage
Neutrophils, content of cell elements in 1 μL of nasal lavage [3]: 243 ± 58*& in 1 μL of nasal lavage
Number of nose scratchings/2 hours [4]: 13.9 ± 2.6 &
Number of sneezes/2 hours [4]: 5.9 ± 1.1 &
